Laboratory results published in patent publication US20220313626A1, “SMALL MOLECULE INHIBITORS FOR TREATING CANCER IN A SUBJECT HAVING TUMORS WITH HIGH INTERSTITIAL PRESSURE” (GUANGZHOU MAXINOVEL PHARMACEUTICALS CO., LTD., priority 2019, published 2022).

Test system: 4T1 tumor cells
Experiment: Anti-tumor efficacy in the subcutaneous 4T1 murine breast cancer model in BALB/c mice
Format: in vivo
Settings: 4T1, BALB/c mice; for TGI / Tumor Volume: PO, BID, 20 days
Method: Materials required for the experiment: Antibody: mouse PD-1 antibody, Product specifications: 7.09 mg/mL (50 mg/mL), Lot No.: 695318A1 purchased from BioXcell, storage at 4 °C. Experiment animal: 60 BALB/C mice, female, 6˜8 weeks old, 20˜23 g, purchased from Shanghai Lingchang Biotechnology Co, Ltd. Formulation material: castor oil (Cremophor RH40), CAS No.: 61788-85-0, Lot No.: 29761847G0, purchased from Shanghai Xietai Chemical Co. Ltd.; β-cyclodextrin (SBE-β-CD), CAS No.:128446-35-5, Lot No.: 20180110, purchased from Shanghai Shaoyuan Chemical Co. Ltd.; RPMI-1640 culture medium, Art. No.: 1869036, Lot No.:11875-093, purchased from Gibco Co. Ltd.; PBS, Art. No.: SH30256.01, Lot No.: AB10141338, purchased from HyClone Co. Ltd.; Fetal bovine serum: CAS No.: 10099-141, Lot No.: 1966174C, purchased from Gibco Co. Ltd.
Cell preparation and implantation: 4T1 cells (CRL-2539™) were cultured with RPMI 1640 supplemented with 10% heat inactivated FBS at 37° C. in 5% CO2 incubator. Cells were passaged 3 times a week. Cells were harvested, counted and passaged, inoculated when around 70% confluent.
Tumor cell inoculation and group administration: The 50 uL cell suspension containing 1×10^5 4T1 tumor cells (cells suspended in base RPMI-1640 medium) was inoculated into the fourth fat pad of the left abdomen of mice. On the second day after inoculation, according to the order of tumor inoculation, stratified randomization was used to group and start the administration on the day of grouping.
Preparation of test substances: Preparation of formulation: 490 mL of sterile water was added into the volumetric flask with magnetic stirring to have a vortex. 100 g of castor oil (Cremophor RH40) was added with a spoon slowly into the vortex and the solution was kept stirring. 200 g of β-cyclodextrin (SBE-β-CD) was added while the solution was kept stirring until the solution was clear, and the total volume was set to 1000 mL, which contained 10% (w/v) Cremophor RH40+20% (w/v) an aqueous solution of SBE-β-CD.
Preparation of Compound Suspension: 178.88 mg compound was weighed and 14.817 mL 10% (w/v) Cremophor RH40+20% (w/v) SBE-β-CD aqueous solution were added. The suspension solution with a concentration of 12.0 mg/mL was obtained by fully mixing with magnetic stirring. 7.0 mL of the compound suspension solution with concentration of 12.0 mg/mL was pipetted and 7.0 mL aqueous formulation solution was added. The suspension solution with a concentration of 6.0 mg/mL was obtained by fully mixing with magnetic stirring, 7.0 mL of the compound suspension solution with concentration of 6.0 mg/mL was pipetted and 7.0 mL aqueous formulation solution was added. The suspension solution with a concentration of 3.0 mg/mL was obtained by fully mixing with magnetic stirring. 7.0 mL of the compound suspension solution with concentration of 3.0 mg/mL was pipetted and 7.0 mL aqueous formulation solution was added. The suspension solution with a concentration of 1.5 mg/mL was obtained by fully mixing with magnetic stirring. The compound suspension solution was prepared once a day.
Preparation of mPD-1 Antibody: 0.339 mL mPD-L1 antibody (7.09 mg/mL) original solution was pipetted and 2.061 mL PBS solution was added. The solution was fully mixed and the final concentration of 1 mg/mL solution was obtained.
Procedure: The mice in the vehicle group were weighed and recorded in the electronic balance according to their numbers. The mice in the vehicle group were given prepared formulation solution twice a day by oral administration according to their body weight with a capacity of 0.1 mL/10 g. Each mouse spent about 20 seconds and 10 mice in each group shared for about 5 minutes.
The mice in the antibody (10 mg/kg) group were weighed and recorded in the electronic balance according to their numbers. The mice in the antibody group were given prepared antibody solution twice a week by IP administration according to their body weight with a capacity of 0.1 ml/10 g. […]

Cc1c(/C=C/c2cc(CN[C@@](C)(CO)C(=O)O)ccc2C(F)(F)F)cccc1-c1ccccc1 [Compound]
TGI (15 mg/kg): 19.96%
Tumor Volume (15 mg/kg): 689.03 ± 43.97 mm^3
TGI (30 mg/kg): 33.34%
Tumor Volume (30 mg/kg): 573.9 ± 43.18 mm^3
TGI (60 mg/kg): 36.32%
Tumor Volume (60 mg/kg): 548.24 ± 31.39 mm^3
TGI (120 mg/kg): 41.55%
Tumor Volume (120 mg/kg): 503.16 ± 32.93 mm^3
minimum effective dose (p<0.05): 30 mpk
